Assays:
[1] = molecular target: T1, glutathione-S-transferase (GST) tagged LXRalpha LBD (ligand binding domain) (Homo sapiens, UniProt Q13133); assay: LanthaScreen TR-FRET Liver X Receptor Coactivator Assay, co-activator recruitment to LXRalpha LBD; format: biochemical; settings: for Emax: efficacy at max dose, in relation to reference dual agonist T0901317, read-out: LXR alpha Activity @ max dose (%); for EC50 / LXR alpha IP (nM): potency (Inflection Point, IP), co-activator recruitment to LXRalpha LBD, in relation to T0901317; for EC50: read-out: LXR alpha IP
T1 construct: purchased Invitrogen pv4655
T1 sequence (Q13133 209-447 limits assumed): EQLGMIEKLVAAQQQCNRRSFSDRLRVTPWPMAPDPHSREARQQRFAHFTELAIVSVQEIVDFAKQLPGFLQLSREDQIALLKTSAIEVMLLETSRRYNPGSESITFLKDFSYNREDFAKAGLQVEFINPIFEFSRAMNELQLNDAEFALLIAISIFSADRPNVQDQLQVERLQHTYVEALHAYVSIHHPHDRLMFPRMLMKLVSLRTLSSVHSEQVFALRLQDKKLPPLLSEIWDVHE
Method in brief: (§1)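 Readout is time-resolved FRET between a terbium anti-GST antibody bound to the LBD and a fluorescein-tagged coactivator peptide recruited on ligand binding. Plates were incubated at room temperature before reading. Potency (IP) and efficacy (Emax) are referenced to T0901317.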

[2] = molecular target: T2, glutathione-S-transferase (GST) tagged LXRbeta LBD (ligand binding domain) (Homo sapiens, UniProt P55055); assay: LanthaScreen TR-FRET Liver X Receptor Coactivator Assay, co-activator recruitment to LXRbeta LBD; format: biochemical; settings: for Emax: read-out: LXR beta Activity @ max dose (%); for EC50: potency (Inflection Point, IP), co-activator recruitment to LXRbeta LBD, in relation to T0901317, read-out: LXR beta IP
T2 construct: purchased Invitrogen pv4658.pps
T2 sequence (P55055 222-460 limits assumed): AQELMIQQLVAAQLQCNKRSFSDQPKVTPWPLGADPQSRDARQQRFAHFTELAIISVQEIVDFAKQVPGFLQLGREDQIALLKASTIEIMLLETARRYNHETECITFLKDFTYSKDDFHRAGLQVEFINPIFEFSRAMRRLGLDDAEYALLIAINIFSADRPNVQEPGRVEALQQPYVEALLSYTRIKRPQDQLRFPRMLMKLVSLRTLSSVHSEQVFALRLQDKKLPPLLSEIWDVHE
Method in brief: as §1

[3] = efficacy at max dose, in relation to reference dual agonist T0901317

SMILES | Emax [1] | EC50 [1] | Emax [2, 3] | EC50 [2] | LXR alpha IP (nM) [1] | LXR beta Activity @ max dose (%) [2, 3]
CC(C)C(O)(C(=O)N1CCC(CC2CCN(c3ccc(C(=O)N(C)C)c(Cl)c3)CC2)CC1)c1ccccc1 (stereo not drawn) [Example 2-109, 2-chloro-4-(4-{[1-(2-hydroxy-3-methyl-2-phenylbutanoyl)piperidin-4-yl]methyl}piperidin-1-yl)-N,N-dimethyl-benzamide] | 26% | 982 nM | 75% | 72 nM | – | –
CN(C)C(=O)c1ccc(N2CCC(CC3CCN(C(=O)[C@](O)(c4cc(Cl)cc(Cl)c4)C(F)(F)F)CC3)CC2)cc1 [Example 2-133, 4-[4-({1-[(2R)-2-(3,5-dichloro-phenyl)-3,3,3-trifluoro-2-hydroxy-propanoyl]piperidin-4-yl}methyl)piperidin-1-yl]-N,N-dimethyl-benzamide] | 6% | – | 54% | 36 nM | NO IP | –
O=C(c1ccc(N2CCC(CC3CCN(C(=O)[C@](O)(c4ccccc4)C(F)(F)F)CC3)CC2)cc1Cl)N1CCC[C@H]1CO [Example 4-3, (2R)-3-(4-{[1-(3-chloro-4-{[(2S)-2-(hydroxy-methyl)pyrrolidin-1-yl]carbonyl}phenyl)piperidin-4-yl]methyl}piperidin-1-yl)-1,1,1-trifluoro-3-oxo-2-phenylpropan-2-ol] | 30% | 50 nM | 63% | 5 nM | – | –
CN(C)C(=O)c1ccc(N2CCC(CC3(C)CCN(C(=O)[C@](O)(c4cccc(Cl)c4)C(F)(F)F)CC3)CC2)nc1Cl [Example 7-47, 2-chloro-6-[4-({1-[(2R)-2-(3-chlorophenyl)-3,3,3-trifluoro-2-hydroxypropanoyl]-4-methylpiperidin-4-yl}methyl)piperidin-1-yl]-N,N-dimethylpyridine-3-carboxamide] | 22% | 60 nM | 66% | 3 nM | – | –
COc1cccc([C@@](O)(C(=O)N2CCC(CC3CCN(c4ccc(C(=O)N(C)C)c(Cl)n4)CC3)CC2)C(F)(F)F)c1 [Example 7-52, 2-chloro-N,N-dimethyl-6-[4-({1-[(2R)-3,3,3-trifluoro-2-hydroxy-2-(3-methoxyphenyl)propanoyl]piperidin-4-yl}methyl)piperidin-1-yl]pyridine-3-carboxamide] | 14% | 120 nM | 69% | 5 nM | – | –
CC(C)c1cccc(C(O)(C(=O)N2CCC(CC3CCN(c4ccc(C(=O)N(C)C)c(Cl)n4)CC3)CC2)C(F)(F)F)c1 (stereo not drawn) [Example 7-84, 2-chloro-N,N-dimethyl-6-{4-[(1-{3,3,3-trifluoro-2-hydroxy-2-[3-(1-methylethyl)phenyl]propanoyl}piperidin-4-yl)methyl]piperidin-1-yl}pyridine-3-carboxamide] | 11% | – | 54% | 13 nM | NO IP | –
CN(C)C(=O)c1ccc(N2CCC(CC3CN(C(=O)[C@](O)(c4cccc(Cl)c4)C(F)(F)F)C3)CC2)nc1Cl [Example 7-41, 2-chloro-6-[4-({1-[(2R)-2-(3-chlorophenyl)-3,3,3-trifluoro-2-hydroxypropanoyl]azetidin-3-yl}methyl)piperidin-1-yl]-N,N-dimethylpyridine-3-carboxamide] | 35% | 525 nM | 110% | 11 nM | – | –
CNC(=O)c1ccc(N2CCC(CC3CCN(C(=O)C(O)(c4cccc(C)c4)C(F)(F)F)CC3)CC2)cc1Cl (stereo not drawn) [Example 7-36, 2-chloro-N-methyl-4-[4-({1-[3,3,3-trifluoro-2-hydroxy-2-(3-methylphenyl)propan-oyl]piperidin-4-yl}methyl)piperidin-1-yl]benzamide] | 19% | 762 nM | 65% | 28 nM | – | –
COc1cccc([C@@](O)(C(=O)N2CC(CC3CCN(c4ccc(C(=O)N(C)C)c(OC)n4)CC3)C2)C(F)(F)F)c1 [Example 7-21, 2-methoxy-N,N-dimethyl-6-[4-[{1-[(2R)-3,3,3-trifluoro-2-hydroxy-2-(3-methoxyphenyl)propanoyl]azetidin-3-yl}methyl)piperidin-1-yl]pyridine-3-carboxamide] | 2% | – | 70% | 169 nM | NO IP | –

Continued by falling EC50 [2], values first:

Emax [1] | EC50 [1] | Emax [2, 3] | EC50 [2] | LXR alpha IP (nM) [1] | LXR beta Activity @ max dose (%) [2, 3] | SMILES
81% | 2550 nM | 133% | 99 nM | – | – | CNC(=O)c1ccc(N2CCC(CC3CCN(C(=O)C(O)(c4cccnc4)C(F)(F)F)CC3)CC2)nc1Cl (stereo not drawn) [Example 7-142, 2-chloro-N-methyl-6-(4-{[1-(3,3,3-trifluoro-2-hydroxy-2-pyridin-3-ylpropanoyl)piperidin-4-yl]methyl}piperidin-1-yl)pyridine-3-carboxamide]
19% | 752 nM | 57% | 29 nM | – | – | CN(C)C(=O)c1ncc(N2CCC(CC3CCN(C(=O)C(O)(c4cccc(C(F)(F)F)c4)C(F)(F)F)CC3)CC2)cc1Cl (stereo not drawn) [Example 2-5, 3-chloro-N,N-dimethyl-5-{4-[(1-{3,3,3-trifluoro-2-hydroxy-2-[3-(trifluoromethyl)phenyl]propanoyl}piperidin-4-yl)methyl]piperidin-1-yl}pyridine-2-carboxamide]
29% | 543 nM | 69% | 27 nM | – | – | CN(C)C(=O)c1ccc(N2CCC(CC3CCN(C(=O)C(O)(c4cccc(F)c4)C(F)F)CC3)CC2)cc1Cl (stereo not drawn) [Example 2-122, 2-chloro-4-[4-({1-[3,3-difluoro-2-(3-fluorophenyl)-2-hydroxy-propanoyl]piperidin-4-yl}methyl)piperidin-1-yl]-N,N-dimethyl-benzamide]
– | – | – | 16 nM | NO IP | 90% | CNC(=O)c1ccc(N2CCC(CC3CCN(C(=O)C(O)(c4cccc(Cl)c4)C(F)(F)F)CC3)CC2)cc1Cl (stereo not drawn) [Example 7-129, 2-chloro-4-[4-({1-[2-(3-chlorophenyl)-3,3,3-trifluoro-2-hydroxypropanoyl]piperidin-4-yl}methyl)piperidin-1-yl]-N-methylbenzamide]
13% | – | 50% | 12 nM | NO IP | – | CC(C)Oc1cccc(C(O)(C(=O)N2CCC(CC3CCN(c4ccc(C(=O)N(C)C)c(Cl)c4)CC3)CC2)C(F)(F)F)c1 (stereo not drawn) [Example 2-82, 2-chloro-N,N-dimethyl-4-{4-[(1-{3,3,3-trifluoro-2-hydroxy-2-[3-(1-methyl-ethoxy)phenyl]propanoyl}piperidin-4-yl)methyl]piperidin-1-yl}benzamide]
32% | 182 nM | 82% | 12 nM | – | – | CNC(=O)c1ccc(N2CCC(CC3CCN(C(=O)[C@](O)(c4cccc(Br)c4)C(F)(F)F)CC3)CC2)cc1Cl [Example 7-119, 4-[4-({1-[(2R)-2-(3-bromophenyl)-3,3,3-trifluoro-2-hydroxypropanoyl]piperidin-4-yl}methyl)piperidin-1-yl]-2-chloro-N-methyl-benzamide]
29% | 294 nM | 70% | 12 nM | – | – | CN(C)C(=O)c1ccc(N2CCC(CC3CCN(C(=O)[C@](O)(c4cccc(F)c4)C(F)F)CC3)CC2)cc1Cl [Example 2-164, 2-chloro-4-[4-({1-[(2R)-3,3-difluoro-2-(3-fluorophenyl)-2-hydroxy-propanoyl]piperidin-4-yl}methyl)piperidin-1-yl]-N,N-dimethyl-benzamide]
20% | 49 nM | 79% | 5 nM | – | – | COc1cc(F)cc([C@@](O)(C(=O)N2CCC(CC3CCN(c4ccc(C(N)=O)c(Cl)c4)CC3)CC2)C(F)(F)F)c1 [Example 12-3, 2-chloro-4-[4-({1-[(2R)-3,3,3-trifluoro-2-(3-fluoro-5-methoxy-phenyl)-2-hydroxy-propanoyl]piperidin-4-yl}methyl)-piperidin-1-yl]-benzamide]
22% | 75 nM | 124% | 5 nM | – | – | CNC(=O)c1ccc(N2CCC(CC3CCN(C(=O)[C@](O)(c4cc(F)cc(OC)c4)C(F)(F)F)CC3)CC2)nc1Cl [Example 7-132, 2-chloro-N-methyl-6-[4-({1-[(2R)-3,3,3-trifluoro-2-(3-fluoro-5-methoxyphenyl)-2-hydroxypropanoyl]piperidin-4-yl}methyl)piperidin-1-yl] pyridine-3-carboxamide]
63% | 51 nM | 100% | 4 nM | – | – | CNC(=O)c1ccc(N2CCC(CC3CCN(C(=O)[C@](O)(c4cccc(Cl)c4)C(F)(F)F)CC3)CC2)nc1Cl [Example 7-147, 2-chloro-6-[4-({1-[(2R)-2-(3-chlorophenyl)-3,3,3-trifluoro-2-hydroxypropanoyl]piperidin-4-yl}methyl)piperidin-1-yl]-N-methylpyridine-3-carboxamide]
